Experimental data from patent US11426441B2, “Composition comprising protein phosphatase 1 inhibitory peptide for treating vascular diseases” (BethphaGen Inc., priority 2016, dated 2022).
No end group written: not given here.

Key:
phospholamban = assay: PLB phosphorylation in PASMCs (western blotting); format: cell-based; settings: synthetic phenotype, 3 μM
Protocol: PASMCs were incubated in DMEM supplemented with 0.1% (v/v) FBS for 3 days to induce a contractile phenotype, followed by incubation in DMEM supplemented with 10% (v/v) FBS for 3 days to induce a synthetic phenotype in the presence of 3 μM ψPLB-SE. (18a) Protein expression was quantitatively analyzed through western blotting using antibodies against phospho-PLB (ser16), total PLB, and GAPDH. Data are expressed as the means±SD (n=3˜4; *, P<0.05 vs contractile; #, P<0.05 vs Synthetic-con).
Human coronary smooth muscle cells (HCSMCs), pulmonary arterial endothelial cells (PAECs), and pulmonary arterial smooth muscle cells (PASMCs) were purchased from Lonza and cultured in EBM or SmBM (Lonza) supplemented with 0.5 mg/mL hEGF, 5 mg/mL insulin, 1 mg/mL hFGF, 50 mg/mL gentamicin/amphotericin-B, and 5% fetal bovine serum. All the cells were cultured at 37 in 5% (v/v) CO2 and 95% (v/v) air. RASMCs and HCSMCs were, respectively, plated at the densities of 1×10^4 cells/cm^2 and 1×10^5 cells/cm^2 for immunostaining and western blotting experiments.
Vascular smooth muscle cells (VSMCs) were homogenized in a minimal volume of 50 mM Tris-HCl, pH 7.4, supplemented with a broad-spectrum protease inhibitor cocktail (Calbiochem). […] The blots were scanned and quantified using LAS software.

[1] = system: balloon-injured rat carotid arteries; assay: Balloon-induced injury of rat carotid artery; format: in vivo
Excerpt: The left common carotid artery was injured by an infiltration of 2F Fogarty balloon embolectomy catheter. In brief, the rats were anesthetized with isoflurane gas (70% N2O/30% O2), the left external carotid artery was exposed, and branches thereof were electro-coagulated. A catheter was inserted approximately 1 cm into the external carotid artery via a transverse arteriotomy, and endothelial denudation was achieved by three passes of the catheter along the common carotid artery. After removal of the catheter, the penetrated area was clamped, and 5 μg of the peptides solubilized in 200 μL of phosphate-buffered saline (PBS) was injected. After incubation for 15 minutes, the sealed carotid artery was re-opened to resume blood flow. The rats were allowed to recover for 10 days, unless otherwise stated. For histological analyses, the rats were anesthetized, and the common carotid artery was excised after transcardiac perfusion with heparinized saline containing 3.7% (w/v) formaldehyde. The specimens were embedded in paraffin, and paraffin blocks were sectioned with the Leica RM2255 rotary microtome. Two serial tissue sections (thickness, 4 μm) were obtained from the centre of the common carotid artery and stained with haematoxylin and eosin. The lamina, internal elastic lamina, and external elastic lamina were measured with the National Institutes of Health ImageJ software (version 1.62). The intimal and medial areas were determined by subtracting the laminal area from the internal elastic laminal area and by subtracting the internal elastic laminal area from the external elastic laminal area, respectively. The values from two serial sections per rat were averaged for analysis.
The carotid artery was fixed in 4% (w/v) paraformaldehyde for 48 hours at room temperature and then washed with PBS. After embedding the specimens in paraffin and sectioning the tissue blocks, the sections were treated with hydrogen peroxide to quench endogenous peroxidase activity, followed by boiling in antigen retrieval buffer. […]

SERCA2a = assay: Calcium uptake assay (SERCA2a activity) in PASMCs; format: biochemical; settings: synthetic phenotype, 3 μM
Protocol: Pulmonary arterial smooth muscle cells (PASMCs) were homogenized in a solution of pH 7.0 containing 40 mM imidazole, 10 mM NaF, 1 mM EDTA, 300 mM sucrose, and 0.5 mM DTT, and 250 μg of the lysate was added to an uptake buffer of pH 7.0 containing 100 mM KCl, 5 mM MgCl2, 5 mM NaN3, […], and 40 mM imidazole, and calcium uptake assay was performed with a calcium concentration of pCa 6, containing radioactive isotopes. The cells were treated with 1 μM ruthenium red (Sigma Aldrich), followed by waiting at 37° C. for 3 min, and then treated with 5 mM K-oxalate and Mg-ATP (Sigma Aldrich). In addition, 500 μl of the reaction material was filtered out through a 0.45 μm filter (Millipore) from the start of a reaction to 4 minutes at intervals of 1 minute, and cpm (count per minute) was measured using a scintillation counter (Beckman).

[2] = system: monocrotaline (MCT)-induced pulmonary arterial hypertension mice; assay: Monocrotaline-induced pulmonary arterial hypertension in mice; format: in vivo, mouse
Protocol: Vascular smooth muscle cells (VSMCs) were homogenized in a minimal volume of 50 mM Tris-HCl, pH 7.4, supplemented with a broad-spectrum protease inhibitor cocktail (Calbiochem). The proteins were separated by SDS-PAGE and then transferred to polyvinylidene fluoride membranes (Schleicher & Schuell). After blocking with 5% (w/v) non-fat milk for 1 hour and washing with TBST, the membranes were incubated with antibodies against SERCA2a, SERCA2b (21st century biochemical), PCNA (abcam), GAPDH (Sigma-Aldrich), phospho-eNOS, eNOS, phospho-eIF2α, eIF2α (cell signaling), Vimentin, α-SMA, BMPR2 (Santa cruz), phospho-Akt, Akt (cell signaling), phospho-phospholamban (Merck), and Phospholamban (cell signaling). The membranes were then incubated with horseradish peroxidase-conjugated secondary antibodies (Jackson ImmunoResearch, West Grove, Pa., USA) and developed using a chemiluminescent substrate (Dogen). The blots were scanned and quantified using LAS software.
As for mice, fifteen C57BL/6 mice (Damool science, Korea) weighing 25-30 g were treated with 600 mg/kg MCT five times a week. Out of the mice, eight animals for a comparison group were administered with ψPLB-SE peptide four times at intervals of one week from day 15 after the administration of MCT. Five animals for a control group were administered with a control peptide. The mice were sacrificed one week after last administration, and then histological analysis and molecular biological experiments were conducted.
Pulmonary tissues were taken from animal models, fixed with 4% (w/v) paraformaldehyde for 5 days at room temperature, and then washed with PBS. After embedding the specimens in paraffin and sectioning the tissue blocks into a thickness of 7 μm, the sections were stained with haematoxylin and eosin (Sigma Aldrich) to investigate the vascular thickness and inflammation, and the sections were stained with Masson-trichrome (Sigma Aldrich) to investigate the extent of perivascular fibrosis, and then observed through an optical microscope.
The pulmonary tissues were obtained from rats and mice, and the cytokine levels in the tissues were quantitatively analyzed using human proinflammatory 10plex Meso Scale Diagnostics plates (MSD; Rockville, Md.).
Quantitative RT-PCR was performed using SYBR premix Ex Taq™ (Takara), though which the transcriptional levels of target genes were analyzed. RNA was isolated from pulmonary tissues using trizole (ambion), and synthesized into cDNA. Quantitative RT-PCR conditions were 40 cycles: 10 sec at 94° C., 30 sec at 59° C., and 10 sec at 72° C.

RASMCs = assay: In vitro cell scratch assay (RASMC migration); format: cell-based, rat; settings: 3 μM peptide
Protocol: RASMCs isolated from the thoracic aorta were cultured in DMEM supplemented with 0.1% (v/v) FBS (Contractile) or in DMEM supplemented with 10% (v/v) FBS (Synthetic) in the presence of 3 μM of control peptide (Con; SEQ ID NO: 23) or ψPLB-SE peptide (SEQ ID NO: 2). Alternatively, RASMC cultured in DMEM supplemented with 0.1% (v/v) FBS were treated with 10 ng/ml of PDGF-BB (R&D Systems) (Synthetic) in the presence of 3 μM control or ψPLB-SE peptide. A region of the RASMC layer was removed by scratching the plate with a sterile 200 μL pipette tip. The cells were incubated for 12 hours or 24 hours and then observed under an 1×80 microscope (Olympus). The distance traveled by the cells was measured using MetaMorph software.

“RAETIEMPQ (not fully specified) [ψPLB-SE, 9-mer PP1 decoy peptide mimicking phosphorylated PLB; conjugated via GGG linker to cell penetrating peptide dNP2 or TAT]” was tested, and the “phosphorylation of the serine 16 residue of phospholamban” value (phospholamban) was “restored”, the “in vivo VSMC proliferation (α-SMA, PCNA immunostaining)” value ([1]; balloon-injured rat carotid artery, peptide administered to the injured site) was “inhibits” and the “neointimal formation (haematoxylin and eosin staining)” value ([1]; balloon-injured rat carotid artery, peptide administered to the injured site, compared with control peptide) was “inhibited”. For the same sequence, the “reduction of SERCA2a level by balloon angioplasty-mediated injury (immunostaining)” value ([1]; carotid artery sections) was “inhibited”, the “SERCA2a activity (Ca^2+ uptake assay)” value (SERCA2a) was “restored” and the “expression level of SERCA2a” value ([2]; mouse pulmonary tissue) was “increased”. For the same sequence, the “fibrosis extent of vascular adventitia (Masson-trichrome staining)” value ([2]; mouse pulmonary tissue) was “attenuated”, the “increases in the protein and mRNA expression of TGF-β, Collagen 1, vimentin, and α-SMA” value ([2]; mouse pulmonary tissue) was “attenuated” and the “proinflammatory cytokines (GM-CSF, TNF-α, IL-17, IL-1β, IL-6, TGF-β) levels” value ([2]; mouse pulmonary tissue) was “restored to nearly to the normal levels”. For the same sequence, the “eNOS phosphorylation level (eNOS activity)” value ([2]; mouse pulmonary tissue proteins) was “increased”, the “increase in vascular thickening (hematoxylin and eosin staining)” value ([2]; mouse pulmonary tissue, MCT 600 mg/kg, peptide via respiratory inhalation once a week for 4 weeks from the second week) was “attenuated” and the “increase in monocyte infiltration” value ([2]; mouse pulmonary tissue, hematoxylin and eosin staining) was “attenuated”. The “mRNA expression levels of TNF-α, IL-17, IL-1β, F4/80, and MCP-1” value ([2]; mouse pulmonary tissue, quantitative RT-PCR) was “reduced”, the “increased migratory activity of RASMCs” value (RASMCs; synthetic conditions (10% FBS)) was “inhibited” and the “increased migratory activity of RASMCs” value (RASMCs; treatment with PDGF-BB 10 ng/ml) was “inhibited”.
